# Like-named read-outs stand apart in the source and are kept apart here.
# Legend:
# Assay type in all cases: cell-based
# [1] = tested on: Hek293 WFS1 over-expressor; experiment: In vitro cell viability (CellTiter-Glo), Hek293 WFS1 over-expressor; settings: for reduction in the IC50 on over-expression of WFS1 in Hek293 cells: WFS1 over-expressor vs empty vector
# Experimental: WFS1 cDNA is amplified from clone RC202901 (Origene Technologies) with primers 5′-TCCGCGGCCCCAAGCTTATCGCCATGGACTCCAACACTGC-3′ (SEQ ID NO: 1), 5′-GATGGGCCCAGATCTCGAGTCAGGCCGCCGACAGGAATG-3′ (SEQ ID NO: 2) and cloned into a retroviral mammalian expression vector pCLPCX using HD Infusion (CLONTECH) at Hind3-Xhol sites using standard procedures. The resulting clone is identified as pCLPCX_WFS1.
# HEK293 (ATCC, catalog #CRL-1573) cells are plated in 10 cm dishes (Corning, product #430167) into 10 mL of complete DMEM cell culture media [DMEM (Life Technologies, product #11960-051) media supplemented with 10% FBS (Hyclone, catalog #SH30071.03), antimycotic/antibiotic (Life Technologies, product #15240-062), and Glutamax (Life Technologies, product #35050-061)] at 3×10^6 cells per dish. Cells are allowed to attach and grow overnight at 37° C. in humidified 5% CO2. Cells are co-transfected with pVSV-G, pCMV-Gag/Pol and pCLPCX_WFS1 using Fugene 6 (Promega, catalog #E2691) according to manufacturer's protocol. Separately, cells are co-transfected with pVSV-G, pCMV-Gag/Pol and pCLPCX to produce control retrovirus. Cell culture media containing retrovirus (viral supernatant) is collected at 48 and 72 hours following transfection, filtered through a 0.4 uM filter, and stored at −80° C.
# HEK293 cells are plated in 6 well plates (Corning, product #3516) in 2 mL of complete DMEM cell culture media at 1×10^5 cells well and allowed to attach and grow overnight at 37° C. in humidified 5% CO2. The following day, the media is replaced with viral supernatant to which 10 ug/ml of Polybrene® (Santa Cruz Biotech, catalog #sc-134220) is added. Viral supernatant is replaced 24 hours later with complete DMEM media. Transduced cells are selected in complete DMEM cell culture media containing 1 microgram/mL of puromycin (Life Technologies, catalog #A1113803).
# (§1) HEK293 cells containing empty pCLPCx vector (HEK293 empty), HEK293 cells stably over-expression WFS1 (HEK293 WFS1), HepG2, and HepG2 cells where WFS1 was depleted via CRISPR/Cas9 (HepG2 WFS1 KO) cells were plated into 96-well black plates (Corning, product #3904) in 100 microliters of complete DMEM cell culture media [DMEM (Life Technologies, product #11960-051) media supplemented with 10% FBS (Hyclone, catalog #SH30071.03), antimycotic/antibiotic (Life Technologies, product #15240-062), and Glutamax (Life Technologies, product #35050-061)] at 1,000 (HEK293) or 5,000 (HepG2) cells per well. Cells were allowed to attach and grow overnight, after which compounds are added at various concentrations. Cell viability was assessed 96 hrs after compound addition with CellTiter-Glo reagent (Promega, catalog #G7570) according to manufacturer's protocol and measurement on a Pherastar luminescence plate reader (BMG Labtech).
# The IC50s for the viability of both the Hek293 empty vector and WFS1 over-expressing cells are summarized in Table 47: A<0.06 μM; 0.06 μM≤B<0.6 μM; 0.6 μM≤C<3.0 μM; D≥3.0 μM.
# Colo-205 cells = experiment: Calcium flux assay (FLIPR Calcium 5); settings: FLIPR Calcium 5, measured over 36 minutes
# Experimental: Compounds described herein induced ER stress by causing intracellular calcium flux. Calcium flux was measured in Colo-205 cells using the FLTPR® Calcium 5 Assay Kit according to manufacter's protocol (Molecular Devices, Cat. #R8186) on a FLIPR3 system (Molecular Devices). Calcium flux is measured over 36 minutes. The Colo-205 calcium flux assay data are summarized in Table 47: A<0.6 μM; 0.6 μM≤B<2.0 μM; 2.0 μM≤C<10.0 μM; D≥10.0 μM.
# HepG2 parental = experiment: In vitro cell viability (CellTiter-Glo), HepG2 parental; settings: 96 hours
# Experimental: as §1
# To determine the effect of WFS1 depletion on compound mediated inhibition of cell viability, parental HepG2 cells and HepG2 cells where WFS1 was deleted by CRISPR/Cas9 were exposed to increasing concentrations of either Compound 136 or Compound 253 for 96 hours after which time viability was determined using Cell Titer Glo reagent (Promega). […] The IC50s for the viability of both the HepG2 parental and WFS1 knockout cells are summarized in Table 47: A<0.5 μM; 0.5 μM≤<2.0 μM; 2.0 μM≤C<10.0 μM; D≥[…].
# [2] = Hek293 WFS1 over-expressing cells, read-out: Hek293 WFS1 viability
# [3] = Homo sapiens, HEK293, Hek293 WFS1 over-expressing cells, read-out: Hek293 WFS1 viability
# [4] = Homo sapiens, read-out: HepG2 viability
"EC50 (Colo-205 cells; Homo sapiens, COLO 205, 0.6 h) [nM]",Compound,"IC50 [1, 3] [nM]",IC50 (HepG2 parental; [4]) [nM],also measured
–,"Cc1nc(NCc2cnn(Cc3ccc(C(F)(F)F)nc3)c2)nc2c1NC(=O)[C@H](C)N2C [Compound 136, (7S)-4,7,8-trimethyl-2-(((1-((6-(trifluoromethyl)pyridin-3-yl)methyl)-111-pyrazol-4-yl)methyl)amino)-7,8-dihydropteridin-6(5H)-one]",–,–,"IC50 [1, 2]: < 60 nM; IC50 ([1]; cell viability, Hek293 WFS1 over-expressor, read-out: IC50): 30 nM; IC50 ([1]; cell viability, Hek293 WFS1 over-expressor, read-out: IC50 class): < 60 nM; reduction in the IC50 on over-expression of WFS1 in Hek293 cells ([1]; cell viability): > 1000 fold; EC50 (Colo-205 cells): 600 to 2000 nM; IC50 (HepG2 parental; read-out: HepG2 viability): 500 to 2000 nM; IC50 (HepG2 parental; cell viability, Cell Titer Glo, read-out: IC50): 330 nM; IC50 (HepG2 parental; cell viability, read-out: IC50 class): < 500 nM"
600 to 2000,"Cc1nc(N[C@H]2C[C@H](Sc3ccc(F)cc3)C2)nc2c1N(C)C(=O)[C@H](C)N2C [Compound 307, (7S)-2-((trans-3-((4-fluorophenyl)thio)cyclobutyl)amino)-4,5,7,8-tetramethyl-7,8-dihydropteridin-6(5H)-one]",60 to 600,2000 to 10000,–
600 to 2000,"Cc1nc(N[C@H]2C[C@H](COc3cc(F)c(F)c(F)c3)C2)nc2c1NC(=O)[C@H](C)N2C [Compound 258, (7S)-4,7,8-trimethyl-2-((trans-3-((3,4,5-trifluorophenoxy)methyl)-cyclobutyl)amino)-7,8-dihydropteridin-6(5H)-one]",60 to 600,2000 to 10000,–
600 to 2000,"Cc1nc(NCc2cnn(Cc3cncc(F)c3)c2)nc2c1NC(=O)[C@H](C(C)C)N2C [Compound 415, (7S)-2-(((1-((5-fluoropyridin-3-yl)methyl)-1H-pyrazol-4-yl)methyl)amino)-7-isopropyl-4,8-dimethyl-7,8-dihydropteridin-6(5H)-one]",< 60,500 to 2000,–
2000 to 10000,"Cc1nn(C)cc1Cn1cc(CNc2nc(C)c3c(n2)N(C)[C@@H](C)C(=O)N3)cn1 [Compound 139, (7S)-2-(((1-((1,3-dimethyl-1H-pyrazol-4-yl)methyl)-1H-pyrazol-4-yl)methyl)amino)-4,7,8-trimethyl-7,8-dihydropteridin-6(5H)-one]",≥ 3000,≥ 10000,–
–,"(7S)-4,7,8-trimethyl-2-((trans-3-(3,4-difluorophenoxy)cyclobutyl)amino)-7,8-dihydropteridin-6(5H)-one [Compound 251]",–,–,"IC50 [1, 2]: 60 to 600 nM; EC50 (Colo-205 cells): 600 to 2000 nM; IC50 (HepG2 parental; read-out: HepG2 viability): ≥ 10000 nM"
600 to 2000,"CC[C@H]1C(=O)Nc2cnc(NCc3cnn(Cc4ccc(F)cc4)c3)nc2N1C [Compound 9, (7S)-7-ethyl-2-(((1-(4-fluorobenzyl)-1H-pyrazol-4-yl)methyl)amino)-8-methyl-7,8-dihydropteridin-6(5H)-one]",60 to 600,≥ 10000,–
600 to 2000,"Cc1nc(N[C@H]2C[C@H](Oc3ccnc(C(F)(F)F)c3)C2)nc2c1NC(=O)[C@H](C)N2C [Compound 335, (7S)-4,7,8-trimethyl-2-((trans-3-((2-(trifluoromethyl)pyridin-4-yl)oxy)cyclobutyl)amino)-7,8-dihydropteridin-6(5H)-one]",< 60,2000 to 10000,–
< 600,"Cc1nc(N[C@H]2C[C@H](Oc3cc(F)c(F)c(F)c3)C2)nc2c1N(C)C(=O)[C@H](C)N2C [Compound 253, (7S)-4,5,7,8-tetramethyl-2-((trans-3-(3,4,5-trifluorophenoxy)cyclobutyl)amino)-7,8-dihydropteridin-6(5H)-one]",< 60,500 to 2000,"IC50 ([1]; Homo sapiens, HEK293, cell viability, Hek293 WFS1 over-expressor, read-out: IC50): 12 nM; IC50 ([1]; Homo sapiens, HEK293, cell viability, Hek293 WFS1 over-expressor, read-out: IC50 class): < 60 nM; reduction in the IC50 on over-expression of WFS1 in Hek293 cells ([1]; cell viability): > 1000 fold; IC50 (HepG2 parental; Homo sapiens, cell viability, Cell Titer Glo, read-out: IC50): 640 nM; IC50 (HepG2 parental; Homo sapiens, cell viability, read-out: IC50 class): 500 to 2000 nM"
600 to 2000,"Cc1nc(NCc2cnn(Cc3ccc(C(F)(F)F)nc3)c2)nc2c1NC(=O)[C@H](C(C)C)N2C [Compound 383, (7S)-7-isopropyl-4,8-dimethyl-2-(((1-((6-(trifluoromethyl)pyridin-3-yl)methyl)-1H-pyrazol-4-yl)methyl)amino)-7,8-dihydropteridin-6(5H)-one]",< 60,< 500,–
–,"Cc1nc(NCc2cnn(Cc3ccc(F)nc3)c2)nc2c1NC(=O)[C@H](C1CC1)N2C [Compound 421, (7S)-7-cyclopropyl-2-(((1-((6-fluoropyridin-3-yl)methyl)-1H-pyrazol-4-yl)methyl)amino)-4,8-dimethyl-7,8-dihydropteridin-6(511)-one]",–,–,"IC50 [1, 2]: 60 to 600 nM; EC50 (Colo-205 cells): 600 to 2000 nM; IC50 (HepG2 parental; read-out: HepG2 viability): 500 to 2000 nM"
–,"(7S)-2-(((1-((6-fluoro-2-isopropylpyridin-3-yl)methyl)-1H-pyrazol-4-yl)methyl)(methyl)amino)-7-isopropyl-4,8-dimethyl-7,8-dihydropteridin-6(5H)-one [Compound 430]",–,–,"IC50 [1, 2]: < 60 nM; EC50 (Colo-205 cells): 600 to 2000 nM; IC50 (HepG2 parental; read-out: HepG2 viability): < 500 nM"
2000 to 10000,"Cc1nc(NCc2cnn(CCC3CCOCC3)c2)nc2c1NC(=O)[C@H](C)N2C [Compound 115, (7S)-4,7,8-trimethyl-2-(((1-(2-(tetrahydro-2H-pyran-4-yl)ethyl)-1H-pyrazol-4-yl)methyl)amino)-7,8-dihydropteridin-6(5H)-one]",600 to 3000,≥ 10000,–
600 to 2000,"Cc1nc(NCc2cnn(Cc3ccc(Cl)nc3)c2)nc2c1NC(=O)[C@H](C(C)C)N2C [Compound 409, (7S)-2-(((1-((6-chloropyridin-3-yl)methyl)-1H-pyrazol-4-yl)methyl)amino)-7-isopropyl-4,8-dimethyl-7,8-dihydropteridin-6(5H)-one]",< 60,< 500,–
600 to 2000,"Cc1nc(N[C@H]2C[C@@H](Sc3ccc(F)cc3)C2)nc2c1N(C)C(=O)[C@H](C)N2C [Compound 305, (7S)-2-((cis-3-((4-fluorophenyl)thio)cyclobutyl)amino)-4,5,7,8-tetramethyl-7,8-dihydropteridin-6(5H)-one]",60 to 600,≥ 10000,–
2000 to 10000,"Cc1nc(NCc2cnn(CC(C)(O)c3ccc(F)cc3)c2)nc2c1NC(=O)[C@H](C)N2C (stereo partly drawn) [Compound 128, (7S)-2-(((1-(2-(4-fluorophenyl)-2-hydroxypropyl)-1H-pyrazol-4-yl)methyl)amino)-4,7,8-trimethyl-7,8-dihydropteridin-6(5H)-one]",600 to 3000,2000 to 10000,–
